Source: patent publication US6090834A, “Substituted oxazoles for the treatment of inflammation” (G.D. Searle & Co., priority 1998, dated 2000)

How the values were obtained:
COX-2 = COX-2 activity in vitro (PGE2 formed, ELISA); type: biochemical, human or murine; conditions: recombinant enzyme, arachidonic acid 10 μM, pH 8.0; read-out: COX II ID50
Method: (§1) Evaluation of COX I and COX II activity in vitro
(§2) The COX-2 inhibition activity of the compounds of this invention illustrated in the Examples was determined by the following methods. a. Preparation of recombinant COX baculoviruses
(§3) Recombinant COX-1 and COX-2 were prepared as described by Gierse et al, [J. Biochem., 305, 479-84 (1995)]. A 2.0 kb fragment containing the coding region of either human or murine COX-1 or human or murine COX-2 was cloned into a BamH1 site of the baculovirus transfer vector pVL1393 (Invitrogen) to generate the baculovirus transfer vectors for COX-1 and COX-2 in a manner similar to the method of D. R. O'Reilly et al (Baculovirus Expression Vectors: A Laboratory Manual (1992)). Recombinant baculoviruses were isolated by transfecting 4 μg of baculovirus transfer vector DNA into SF9 insect cells (2×10^8) along with 200 ng of linearized baculovirus plasmid DNA by the calcium phosphate method. See M. D. Summers and G. E. Smith, A Manual of Methods for Baculovirus vectors and Insect Cell Culture Procedures, Texas Agric. Exp. Station Bull. 1555 (1987). Recombinant viruses were purified by three rounds of plaque purification and high titer (10^7 -10^8 pfu/ml) stocks of virus were prepared. For large scale production, SF9 insect cells were infected in 10 liter fermentors (0.5×10^6 /ml) with the recombinant baculovirus stock such that the multiplicity of infection was 0.1. After 72 hours the cells were centrifuged and the cell pellet homogenized in Tris/Sucrose (50 mM: 25%, pH 8.0) containing 1% 3-[(3-cholamidopropyl)dimethylammonio]-1-propanesulfonate (CHAPS). The homogenate was centrifuged at 10,000×G for 30 minutes, and the resultant supernatant was stored at -80° C. before being assayed for COX activity. […]
(§4) b. Assay for COX-1 and COX-2 activity
(§5) COX activity was assayed as PGE2 formed/μg protein/time using an ELISA to detect the prostaglandin released. CHAPS-solubilized insect cell membranes containing the appropriate COX enzyme were incubated in a potassium phosphate buffer (50 mM, pH 8.0) containing epinephrine, phenol, and heme with the addition of arachidonic acid (10 μM). Compounds were pre-incubated with the enzyme for 10-20 minutes prior to the addition of arachidonic acid. Any reaction between the arachidonic acid and the enzyme was stopped after ten minutes at 37° C./room temperature by transferring 40 μl of reaction mix into 160 μl ELISA buffer and 25 μM indomethacin. The PGE2 formed was measured by standard ELISA technology (Cayman Chemical).

COX-1 = COX-1 activity in vitro (PGE2 formed, ELISA); type: biochemical, human or murine; conditions: recombinant enzyme, arachidonic acid 10 μM, pH 8.0; read-out: COX-1 ID50
Method: as §1, §2, §3, §4, §5

carrageenan foot edema = test: Rat Carrageenan Foot Pad Edema Test; type: in vivo, Male Sprague-Dawley rats; conditions: oral, 3 h after carrageenan; for inhibition in vivo at 10 mg/kg: Rattus norvegicus, 10 mg/kg body weight, read-out: RAT PAW EDEMA % Inhibition @ 10 mg/kg body weight
Method: Rat Carrageenan Foot Pad Edema Test
Male Sprague-Dawley rats were selected in each group so that the average body weight was as close as possible. Rats were fasted with free access to water for over sixteen hours prior to the test. […] One hour later a subplantar injection of 0.1 mL of 1% solution of carrageenan/sterile 0.9% saline was administered and the volume of the injected foot was measured with a displacement plethysmometer connected to a pressure transducer with a digital indicator. Three hours after the injection of the carrageenan, the volume of the foot was again measured.

| SMILES | IC50 (COX-2) | IC50 (COX-1) | inhibition in vivo at 10 mg/kg (carrageenan foot edema) | RAT PAW EDEMA % Inhibition (1 @ 30 mg/kg body weight) (carrageenan foot edema) |
| --- | --- | --- | --- | --- |
| CS(=O)(=O)c1ccc(-c2oc(CC(=O)O)nc2-c2ccc(F)cc2)cc1 [Example 16, 2-[4-(4-Fluorophenyl)-5-[4-(methylsulfonyl)phenyl]oxazol-2-yl]acetic acid] | – | – | 26% | – |
| CC(C)(C)c1nc(-c2ccc(F)cc2)c(-c2ccc(S(C)(=O)=O)cc2)o1 [Example 7, 2-(Tert-butyl)-4-(4-fluorophenyl)-5-[4-(methylsulfonyl)phenyl]oxazole] | – | – | 24% | – |
| CS(=O)(=O)c1ccc(-c2oc(C(c3ccccc3)c3ccccc3)nc2-c2ccc(F)cc2)cc1 [Example 10, 2-Diphenylmethyl-4-(4-fluorophenyl)-5-[4-methylsulfonylphenyloxazole]] | – | – | 18% | – |
| CS(=O)(=O)c1ccc(-c2oc(-c3ccccc3)nc2-c2ccc(F)cc2)cc1 [Example 3, 4-(4-Fluorophenyl)-5-[4-(methylsulfonyl)phenyl]-2-phenyloxazole] | < 100 nM | > 10000 nM | 30% | – |
| CS(=O)(=O)c1ccc(-c2oc(COc3ccccc3)nc2-c2ccc(F)cc2)cc1 [Example 28, 4-(4-fluorophenyl)-5-[4-(methylsulfonyl)-phenyl]-2-phenoxymethyloxazole] | – | – | 2% | – |
| CCOC(=O)Cc1nc(-c2ccc(F)cc2)c(-c2ccc(S(C)(=O)=O)cc2)o1 [Example 11] | – | – | 42% | – |
| COc1ccc(-c2oc(C(F)(F)F)nc2-c2ccc(S(C)(=O)=O)cc2)cc1F [Example 70, 5-(3-fluoro-4-methoxyphenyl)-4-(4-methylsulfonylphenyl)-2-trifluoromethyloxazole] | < 100 nM | > 100000 nM | – | 46% |
| COc1ccc(Cc2nc(-c3ccc(F)cc3)c(-c3ccc(S(C)(=O)=O)cc3)o2)cc1 [Example 8, 4-(4-Fluorophenyl)-2-(4-methoxyphenyl)methyl-5-[4-methylsulfonylphenyl]oxazole] | – | – | 12% | – |
| COc1nc(-c2ccccc2)c(-c2ccc(S(N)(=O)=O)cc2)o1 [Example 55, 4-[2-methoxy-4-phenyl-5-oxazolyl]benzenesulfonamide] | < 100 nM | 9700 nM | – | 37% |
| CS(=O)(=O)c1ccc(-c2oc(CCC3CCCCC3)nc2-c2ccc(F)cc2)cc1 [Example 32, 2-(2-cyclohexylethyl)-4-(4-fluorophenyl)-5-[4-(methylsulfonyl)phenyl]oxazole] | < 100 nM | 15900 nM | – | – |
| COc1ccc(-c2oc(CC(=O)O)nc2-c2ccc(S(N)(=O)=O)cc2)cc1F [Example 66, [4-(4-aminosulfonylphenyl)-5-(3-fluoro-4-methoxyphenyl)]-2-oxazoleacetic acid] | 13000 nM | 21000 nM | – | – |
| NS(=O)(=O)c1ccc(-c2oc(CO)nc2-c2ccccc2)cc1 [Example 75, 4-[2-hydroxymethyl-4-phenyl-5-oxazolyl]benzenesulfonamide] | < 100 nM | > 100000 nM | – | – |
| NC(=O)c1nc(-c2ccccc2)c(-c2ccc(S(N)(=O)=O)cc2)o1 [Example 72, 5-(4-aminosulfonylphenyl)-4-phenyl-oxazole-2-carboxamide] | 2200 nM | > 100000 nM | – | – |
| Cc1nc(-c2ccc(S(C)(=O)=O)cc2)c(-c2ccc(F)cc2)o1 [Example 14, 5-(4-Fluorophenyl)-2-methyl-4-[4-(methylsulfonyl)phenyl]oxazole] | > 10000 nM | > 30000 nM | – | – |

Now from value to compound, other results behind:

| IC50 (COX-2) | IC50 (COX-1) | SMILES | inhibition in vivo at 10 mg/kg (carrageenan foot edema) | RAT PAW EDEMA % Inhibition (1 @ 30 mg/kg body weight) (carrageenan foot edema) |
| --- | --- | --- | --- | --- |
| < 100 nM | > 100000 nM | CS(=O)(=O)c1ccc(-c2oc(COc3cccc(Cl)c3)nc2-c2ccc(F)cc2)cc1 [Example 30, 4-(4-fluorophenyl)-5-[4-(methylsulfonyl)phenyl]-2-(3-chlorophenoxy)methyloxazole] | 4% | – |
| < 100 nM | 26000 nM | NS(=O)(=O)c1ccc(-c2nc(CC(=O)O)oc2-c2ccc(Cl)c(Cl)c2)cc1 [Example 40, [4-(4-aminosulfonylphenyl)-5-(3.4-dichlorophenyl)]-2-oxazoleacetic acid] | – | – |
| 60700 nM | > 100000 nM | NS(=O)(=O)c1ccc(-c2nc(CC(=O)O)oc2-c2ccc(F)c(F)c2)cc1 [Example 41] | – | – |
| 200 nM | > 30000 nM | COC(=O)CCc1nc(-c2ccc(S(C)(=O)=O)cc2)c(-c2ccc(F)cc2)o1 [Example 15, Methyl 3-[5-(4-fluorophenyl)-4-[4-(methylsulfonyl)phenyl]]-2-oxazolepropanoate] | – | – |
| < 100 nM | 4500 nM | CCOC(=O)c1ccccc1Oc1nc(-c2ccccc2)c(-c2ccc(S(N)(=O)=O)cc2)o1 [Example 56, ethyl 2-[[5-(4-aminosulfonylphenyl)-4-phenyl-2-oxazolyl]oxy]benzoate] | – | – |
| < 100 nM | 1100 nM | NS(=O)(=O)c1ccc(-c2oc(C(F)(F)F)nc2-c2ccccc2)cc1 [Example 64, 4-[4-phenyl-2-trifluoromethyl-5-oxazolyl]benzenesulfonamide] | – | – |
| 2100 nM | 300 nM | NS(=O)(=O)c1ccc(-c2oc(SCC(=O)O)nc2-c2ccccc2)cc1 [Example 48, 5-(4-aminosulfonylphenyl)-4-phenyl-2-oxazolemercaptoacetic acid] | – | – |
| < 100 nM | 2000 nM | Cc1ccc(-c2nc(C(F)(F)F)oc2-c2ccc(S(C)(=O)=O)cc2)cc1 [Example 68, 4-(4-methylphenyl)-5-(4-methylsulfonylphenyl)-2-trifluoromethyl-oxazole] | – | – |
| < 100 nM | 1000 nM | NS(=O)(=O)c1ccc(-c2oc(Oc3cccc(Cl)c3)nc2-c2ccccc2)cc1 [Example 47] | – | – |
| < 100 nM | 11400 nM | NS(=O)(=O)c1ccc(-c2nc(C(F)(F)F)oc2-c2ccc(F)c(F)c2)cc1 [Example 42, 4-[5-(3.4-difluorophenyl)-2-trifluoromethyl-4-oxazolyl]benzenesulfonamide] | – | – |
| 50 nM | 3100 nM | CCOC(=O)C(Cc1ccccc1)c1nc(-c2ccc(F)cc2)c(-c2ccc(S(C)(=O)=O)cc2)o1 (stereo not shown) [Example 33] | – | – |
| < 100 nM | > 100000 nM | CS(=O)(=O)c1ccc(-c2oc(COc3ccc(F)cc3)nc2-c2ccc(F)cc2)cc1 [Example 31, 4-(4-fluorophenyl)-5-[4-(methylsulfonyl)-phenyl]-2-[(4-fluorophenoxy)methyl]oxazole] | 5% | – |
| < 100 nM | 6500 nM | NS(=O)(=O)c1ccc(-c2oc(Cl)nc2-c2ccccc2)cc1 [Example 45, 4-[2-chloro-4-phenyl-5-oxazolyl]benzenesulfonamide] | – | – |
| 500 nM | 1700 nM | NS(=O)(=O)c1ccc(-c2oc(S)nc2-c2ccccc2)cc1 [Example 46, 4-[2-mercapto-4-phenyl-5-oxazolyl]benzenesulfonamide] | – | – |
| < 100 nM | 400 nM | NS(=O)(=O)c1ccc(-c2nc(C(F)(F)F)oc2-c2ccc(Cl)cc2)cc1 [Example 59, 4-[5-(4-chlorophenyl)-2-trifluoromethyl-4-oxazolyl]benzenesulfonamide] | – | – |
| < 100 nM | 14000 nM | Cc1nc(-c2ccccc2)c(-c2ccc(S(N)(=O)=O)cc2)o1 [Example 51, 4-[2-methyl-4-phenyl-5-oxazolyl]benzenesulfonamide] | – | – |
| < 100 nM | 3000 nM | NS(=O)(=O)c1ccc(-c2oc(Oc3c(F)c(F)c(F)c(F)c3F)nc2-c2ccccc2)cc1 [Example 54, 4-[2-(2,3,4,5,6-pentafluorophenoxy)-4-phenyl-5-oxazolyl]benzenesulfonamide] | – | – |
